Among the test systems are COLO 205; OVCAR-4; MDA-MB-231; MOLT-4; NCI-H23; CAKI-1; HOP-62; SK-MEL-2; 786-0; NCI-H460; HCT-15; A498; SNB-75; A549; ACHN; BT-549; IGROV-1; K562; DU-145; MDA-MB-435.
Holding throughout (assay): NCI anticancer screen, dose series, 48 h

Molecules are shown by their SMILES.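 The compound was tested at five concentrations on cells cultured in 96-well plates, with a 48-hour exposure period. GI50 = concentration required for 50% inhibition of growth.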 Active and inactive are the calls of the source. Cut-off read from the data, not from the text of the source: active = GI50 up to about 1.1 µM and inactive = higher.

Consider `O=c1o[nH]/c(=N/c2ccccc2)n1-c1ccccc1`, for which the GI50 in the assay on COLO 205, in the assay with OVCAR-4, in the assay on MDA-MB-231, in the assay on MOLT-4, with NCI-H23 and in the assay with CAKI-1 was > 100 µM (inactive) throughout. Also, the GI50 is > 100 µM (inactive) with HOP-62; > 100 µM (inactive) in the assay with SK-MEL-2; > 100 µM (inactive) with 786-0; > 100 µM (inactive) in the assay on NCI-H460; above 100 µM in the assay with HCT-15; > 100 µM (inactive) in the assay with A498. For the same compound, the GI50 in the assay on SNB-75, with A549, in the assay with ACHN, in the assay on BT-549, in the assay on IGROV-1 and in the assay with K562 was > 100 µM (inactive) each time.
On to `C/C=C/OC1C(C2COC(C)(C)O2)OC2OC(C)(C)OC21` (stereo not given), for which the GI50 with OVCAR-4, with MDA-MB-231, with MOLT-4, in the assay on NCI-H23, in the assay with CAKI-1 and in the assay on HOP-62 was > 100 µM (inactive) each time. Further, the GI50 is > 100 µM (inactive) in the assay on SK-MEL-2; > 100 µM (inactive) in the assay on 786-0; > 100 µM (inactive) in the assay with NCI-H460; above 100 µM in the assay on HCT-15; > 100 µM (inactive) with A498; > 100 µM (inactive) in the assay on SNB-75. Also, the GI50 in the assay on A549, in the assay with ACHN, with DU-145, in the assay with MDA-MB-435, in the assay with IGROV-1 and with K562 was > 100 µM (inactive) in each case.
For the compound `O=C1/C(=N/c2ccc(Nc3ccccc3)cc2)Oc2ccccc21`, the GI50 was 1.65 µM (inactive) in the assay on COLO 205; 2.33 µM (inactive) with OVCAR-4; 2.27 µM (inactive) with MDA-MB-231; 2.13 µM (inactive) with MOLT-4; 2.04 µM (inactive) in the assay on NCI-H23; 1.85 µM (inactive) with CAKI-1. Moreover, the GI50 in the assay with HOP-62 is 5.57 µM (inactive); in the assay with SK-MEL-2, 3.3 µM (inactive); in the assay on 786-0 it was 1.88 µM (inactive); with NCI-H460, 5.31 µM (inactive); with HCT-15, 3.3 µM; with A498 it was 5.69 µM (inactive). In addition, the GI50 in the assay with SNB-75 was 2.15 µM (inactive); with A549, 3.51 µM (inactive); in the assay on ACHN, 3.18 µM (inactive); in the assay on DU-145, 8.47 µM (inactive); with MDA-MB-435, 1.82 µM (inactive); with IGROV-1 it was 3.06 µM (inactive). Also, the GI50 in the assay with K562 is 2.93 µM (inactive).
For `CC(=O)OC12c3ccccc3-c3ccccc3C1C1C(=O)OC(=O)C12` (stereo not given), the GI50 in the assay on COLO 205, in the assay with OVCAR-4, with MDA-MB-231, with MOLT-4, in the assay with NCI-H23 and in the assay with CAKI-1 was > 10 µM (inactive) throughout. Besides, the GI50 with HOP-62 is > 10 µM (inactive); in the assay on SK-MEL-2 it was > 10 µM (inactive); with 786-0, > 10 µM (inactive); in the assay with NCI-H460, > 10 µM (inactive); in the assay on HCT-15, above 10 µM; in the assay with A498 it was > 10 µM (inactive). The GI50 with SNB-75, in the assay on ACHN, with DU-145, in the assay on MDA-MB-435, with IGROV-1 and in the assay with K562 was > 10 µM (inactive) in each case.
As for `CC1(C)C(OC(=O)c2ccccc2)C[C@]23CCC[C@](C)(C[C@@H](O)C12)C3` (stereo not given in full), the GI50 in the assay with COLO 205 was 17.5 µM (inactive); in the assay on OVCAR-4 it was 23.1 µM (inactive); with MOLT-4, 10.5 µM (inactive); in the assay on NCI-H23, 16.9 µM (inactive); in the assay on CAKI-1 it was 19.9 µM (inactive); in the assay with HOP-62, 24 µM (inactive). In addition, the GI50 was 17.6 µM (inactive) in the assay on SK-MEL-2; 19.6 µM (inactive) in the assay with 786-0; 16.2 µM (inactive) in the assay on NCI-H460; 18.4 µM in the assay on HCT-15; 18.9 µM (inactive) in the assay with SNB-75; 16.3 µM (inactive) in the assay on A549. The GI50 in the assay with ACHN is 17.9 µM (inactive); with DU-145, 21.2 µM (inactive); with BT-549, 15.6 µM (inactive); with MDA-MB-435, 18 µM (inactive); in the assay with IGROV-1 it was 20.2 µM (inactive); in the assay with K562 it was 13.5 µM (inactive).
Take `Cc1ccc(/N=N/N(C)C(=O)C(C)N)cc1` (stereo not given): the GI50 in the assay on COLO 205, in the assay on OVCAR-4, with MOLT-4, in the assay on NCI-H23, with CAKI-1 and in the assay on HOP-62 was > 100 µM (inactive) in each case. Also, the GI50 with SK-MEL-2 was > 100 µM (inactive); in the assay with 786-0, > 100 µM (inactive); with NCI-H460, > 100 µM (inactive); in the assay on HCT-15, above 100 µM; in the assay on SNB-75 it was > 100 µM (inactive); with ACHN it was > 100 µM (inactive). For the same compound, the GI50 in the assay with DU-145, in the assay with BT-549, in the assay with MDA-MB-435, with IGROV-1 and in the assay with K562 was > 100 µM (inactive) in each case.
In the case of `CCCN(CCC)C(=S)N/N=C/c1cccc(C)n1`, the GI50 with COLO 205 is < 0.01 µM (active); with OVCAR-4 it was < 0.01 µM (active); in the assay with MDA-MB-231, < 0.01 µM (active); with MOLT-4, < 0.01 µM (active); with NCI-H23, 0.275 µM (active); with CAKI-1 it was 0.382 µM (active). Besides, the GI50 was 0.195 µM (active) in the assay on HOP-62; 0.594 µM (active) in the assay on SK-MEL-2; 0.0237 µM (active) with 786-0; 0.159 µM (active) in the assay with NCI-H460; 0.0438 µM in the assay on HCT-15; 0.233 µM (active) in the assay with A498. The GI50 in the assay on SNB-75 was 0.261 µM (active); with A549 it was 0.108 µM (active); with ACHN, 0.177 µM (active); in the assay with DU-145 it was 0.321 µM (active); in the assay with MDA-MB-435, 0.521 µM (active); with IGROV-1, 0.0733 µM (active). Also, the GI50 in the assay with K562 is < 0.01 µM (active).
Regarding `O=C(c1ccc(Cl)cc1Cl)N(C(=O)N1CCC(c2ccccc2)CC1)c1ccccc1`, the GI50 is 43.3 µM (inactive) in the assay on COLO 205; 17.8 µM (inactive) in the assay on MOLT-4; > 100 µM (inactive) in the assay with NCI-H23; > 100 µM (inactive) with CAKI-1; > 100 µM (inactive) in the assay with HOP-62; > 100 µM (inactive) with SK-MEL-2. For the same compound, the GI50 in the assay with 786-0 was > 100 µM (inactive); in the assay with NCI-H460 it was > 100 µM (inactive); with HCT-15, above 100 µM; in the assay with A498, 97.7 µM (inactive); in the assay on SNB-75 it was > 100 µM (inactive); in the assay with A549 it was > 100 µM (inactive). For the same compound, the GI50 is > 100 µM (inactive) in the assay on ACHN; > 100 µM (inactive) in the assay with DU-145; > 100 µM (inactive) in the assay with BT-549; 55 µM (inactive) with MDA-MB-435; 92.9 µM (inactive) in the assay on IGROV-1; 34.4 µM (inactive) in the assay with K562.
Take `O=C(CN(C(=O)OC12CC3CC(CC(C3)C1)C2)C(=O)OC12CC3CC(CC(C3)C1)C2)Oc1ccc([N+](=O)[O-])cc1`: the GI50 was > 100 µM (inactive) with COLO 205; > 100 µM (inactive) in the assay with OVCAR-4; 76.2 µM (inactive) in the assay on MDA-MB-231; 4.2 µM (inactive) in the assay on MOLT-4; 93.8 µM (inactive) with NCI-H23; > 100 µM (inactive) with CAKI-1. Also, the GI50 in the assay on HOP-62 was > 100 µM (inactive); in the assay with 786-0, > 100 µM (inactive); with NCI-H460 it was > 100 µM (inactive); in the assay on HCT-15, above 100 µM; in the assay with SNB-75, > 100 µM (inactive); in the assay with A549, > 100 µM (inactive). Also, the GI50 in the assay with ACHN is > 100 µM (inactive); in the assay on BT-549, > 100 µM (inactive); in the assay with MDA-MB-435, 45.3 µM (inactive); in the assay on IGROV-1, > 100 µM (inactive); in the assay with K562, 58.1 µM (inactive).
For the compound `N=C(N)N/N=C\c1c(-c2ccccc2)nc2sccn12`, the GI50 is 12 µM (inactive) with COLO 205; 15.8 µM (inactive) with OVCAR-4; 12.7 µM (inactive) with MDA-MB-231; 18.5 µM (inactive) in the assay with MOLT-4; 12.5 µM (inactive) in the assay with NCI-H23; 16 µM (inactive) with CAKI-1. The GI50 in the assay with HOP-62 was 15.7 µM (inactive); with SK-MEL-2, 15.1 µM (inactive); in the assay with 786-0 it was 14.1 µM (inactive); with NCI-H460 it was 16.2 µM (inactive); with HCT-15 it was 15.7 µM; in the assay on A498, 19.5 µM (inactive). The GI50 was 12.2 µM (inactive) with SNB-75; 17.5 µM (inactive) with A549; 16.9 µM (inactive) with ACHN; 19 µM (inactive) in the assay on DU-145; 15.6 µM (inactive) with MDA-MB-435; 13.6 µM (inactive) in the assay on IGROV-1. Besides, the GI50 in the assay on K562 is 17.3 µM (inactive).
Take `Cc1ccc(S(=O)(=O)NNC(=O)Nc2cccc(C(F)(F)F)c2)cc1`: the GI50 in the assay with COLO 205 was > 100 µM (inactive); in the assay on OVCAR-4 it was 0.0653 µM (active); with MDA-MB-231, > 100 µM (inactive); in the assay with MOLT-4 it was > 100 µM (inactive); with NCI-H23, > 100 µM (inactive); with CAKI-1, > 100 µM (inactive). Also, the GI50 is > 100 µM (inactive) in the assay with HOP-62; > 100 µM (inactive) in the assay on SK-MEL-2; > 100 µM (inactive) in the assay on 786-0; > 100 µM (inactive) in the assay on NCI-H460; 89.1 µM with HCT-15; > 100 µM (inactive) in the assay with A498. For the same compound, the GI50 in the assay with SNB-75 is 0.0284 µM (active); in the assay on A549, > 100 µM (inactive); in the assay with ACHN it was 58.5 µM (inactive); with DU-145, > 100 µM (inactive); in the assay on MDA-MB-435, > 100 µM (inactive); in the assay with IGROV-1, > 100 µM (inactive). In addition, the GI50 in the assay with K562 is 67.6 µM (inactive).

The record behind these values is ChEMBL document CHEMBL1201862, “PubChem BioAssay data set” (2004).
